Measured values reported in patent publication US11773087B2, “GLP-1R receptor agonist compound and use thereof” (SUZHOU VINCENTAGE PHARMA CO., LTD, priority 2020, dated 2023).

molecular target: T1, human GLP-1R receptor (Homo sapiens, UniProt P43220); test: GLP-1R cAMP assay (HTRF, HEK293 cells expressing GLP-1R); format: cell-based; details: agonistic activity, GLP-1R HEK293 cells
T1 construct: expressed in transfected cells; host or cells: 'GLP-1R cells' (frozen vial)
Description: Test Embodiment 1: Activity Test of GLP-1R cAMP Assay
This experiment aims to verify the agonistic activity of the compound of the present disclosure on human GLP-1R receptor.
Compounds were diluted 4-fold starting at 100 μM from DMSO using Bravo for a total of 10 points.
The reference compound polypeptide GLP-1 (7-37) was diluted 4-fold starting from 500 nM in DMSO using Bravo for a total of 10 points.
b) Preparation of Cell Suspension: • 1) 1 vial of GLP-1R cells was quickly thawed in a 37° C. water bath. • 2) The suspension of the cells was transferred to 10 mL of HBSS in a 15 mL conical tube. • 3) The cells were centrifuged at 1000 rpm for 5 min at room temperature to precipitate the cells. • 4) The supernatant was gently aspirated, and being careful not to aspirate the cells. • 5) The cells were relaxed by flicking the precipitation, and then the cell precipitation was re-suspended in 10 mL of HBSS. A sterile pipette was used to move fluid up and down to remove clumps. • 6) The concentration of cells was counted and the cell viability on Vi-cell was determined. • 7) GLP-1R cells were re-suspended in the test buffer at a concentration of 2.0×E5/mL cells. • 8) 10 μL of GLP-1R cell was transferred to OptiPlate-384 well plate.
c) Transfer of Compound: • 1) 100 nL of compound was transferred to OptiPlate-384 plate using Echo Transfer. • 2) The plate was rotated at 1000 rpm for 5 seconds.
d) HTRF cAMP Analysis of Agonists: • 1) The plate was incubated at room temperature for 30 minutes before adding detection reagents. • 2) An electric multi-channel pipette was used to add 10 μL of detection reagents respectively. • 3) The 384 well plate was covered with TopSeal-A membrane and incubated for 60 min at room temperature.
TopSeal-A was unloaded and read on EnVision.

T1 sequence (P43220 24-463): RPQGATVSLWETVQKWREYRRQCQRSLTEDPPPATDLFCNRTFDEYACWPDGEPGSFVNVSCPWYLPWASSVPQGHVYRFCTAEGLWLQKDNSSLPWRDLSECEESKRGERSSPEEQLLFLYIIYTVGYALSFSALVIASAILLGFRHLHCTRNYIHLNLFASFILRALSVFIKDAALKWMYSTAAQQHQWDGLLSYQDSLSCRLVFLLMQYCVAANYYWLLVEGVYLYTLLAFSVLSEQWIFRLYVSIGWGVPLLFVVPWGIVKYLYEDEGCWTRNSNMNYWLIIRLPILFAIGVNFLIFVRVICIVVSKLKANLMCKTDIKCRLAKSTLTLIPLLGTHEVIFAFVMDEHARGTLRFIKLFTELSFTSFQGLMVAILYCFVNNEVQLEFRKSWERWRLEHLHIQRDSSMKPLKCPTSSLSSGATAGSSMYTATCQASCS

EC50 [nM] | Compound
3.4 | N#Cc1ccc(COc2ccccc2C2CCN(Cc3nc4ccc(C(=O)O)cc4n3C[C@@H]3CCO3)CC2)c(F)c1 [Compound 1]
0.8 | N#Cc1ccc(COc2c(F)cccc2C2CCN(Cc3nc4ccc(C(=O)O)cc4n3C[C@@H]3CCO3)CC2)c(F)c1 [Compound 2]
15 | COc1cccc(C2CCN(Cc3nc4ccc(C(=O)O)cc4n3C[C@@H]3CCO3)CC2)c1OCc1ccc(Cl)cc1F [Compound 5]
8.1 | O=C(O)c1ccc2nc(CN3CCC(c4c(F)cccc4OCc4ccc(Cl)cc4F)CC3)n(C[C@@H]3CCO3)c2c1 [Compound 6]
5 | O=C(O)c1ccc2nc(CN3CCC(c4cccc(F)c4OCc4ccccc4F)CC3)n(C[C@@H]3CCO3)c2c1 [Compound 7]
3.2 | O=C(O)c1ccc2nc(CN3CCC(c4ccccc4OCc4ccc(F)cc4F)CC3)n(C[C@@H]3CCO3)c2c1 [Compound 8]
34.8 | O=C(O)c1ccc2nc(CN3CCC(c4ccccc4OCc4ccc(Cl)cn4)CC3)n(C[C@@H]3CCO3)c2c1 [Compound 9]
26 | CC(Oc1ccccc1C1CCN(Cc2nc3ccc(C(=O)O)cc3n2C[C@@H]2CCO2)CC1)c1ccc(Cl)cc1F (stereo partly drawn) [Compound 10]
2.9 | O=C(O)c1ccc2nc(CN3CCC(c4ccccc4OCc4ccc(Cl)cc4Cl)CC3)n(C[C@@H]3CCO3)c2c1 [Compound 11]
5.8 | O=C(O)c1ccc2nc(CN3CCC(c4ccc(F)cc4OCc4ccc(Cl)cc4F)CC3)n(C[C@@H]3CCO3)c2c1 [Compound 13]
3.7 | O=C(O)c1ccc2nc(CN3CCC(c4cc(F)ccc4OCc4ccc(Cl)cc4F)CC3)n(C[C@@H]3CCO3)c2c1 [Compound 14]
7.5 | O=C(O)c1ccc2nc(CN3CCC(c4ccccc4NCc4ccc(Cl)cc4F)CC3)n(C[C@@H]3CCO3)c2c1 [Compound 15]
> 100 | CN(Cc1ccc(Cl)cc1F)c1ccccc1C1CCN(Cc2nc3ccc(C(=O)O)cc3n2C[C@@H]2CCO2)CC1 [Compound 16]
53 | O=C(O)c1ccc2nc(CN3CCC(c4ccccc4SCc4ccc(Cl)cc4F)CC3)n(C[C@@H]3CCO3)c2c1 [Compound 17]
10.7 | O=C(O)c1ccc2nc(CN3CCN(c4ccccc4OCc4ccc(Cl)cc4F)CC3)n(C[C@@H]3CCO3)c2c1 [Compound 18]
> 100 | O=C(O)c1ccc2nc(CC3CCN(c4ccccc4OCc4ccc(Cl)cc4F)CC3)n(C[C@@H]3CCO3)c2c1 [Compound 19]
24.6 | O=C(O)c1ccc2nc(Cc3ccc(-c4ccccc4OCc4ccc(Cl)cc4F)cc3)n(C[C@@H]3CCO3)c2c1 [Compound 20]
> 100 | O=C(O)c1ccc2nc(CC3CCC(c4ccccc4OCc4ccc(Cl)cc4F)CC3)n(C[C@@H]3CCO3)c2c1 (stereo partly drawn) [Compound 21]
2.1 | O=C(O)c1ccc2nc(CN3CCC(c4ccccc4OCc4ccc(Cl)cc4F)CC3)n(C[C@@H]3CCO3)c2n1 [Compound 22]
> 100 | O=C(O)c1ccc2nc(C3(N4CCC(c5ccccc5OCc5ccc(Cl)cc5F)CC4)CC3)n(C[C@@H]3CCO3)c2c1 [Compound 23]
> 100 | Cn1c(CN2CCC(c3ccccc3OCc3ccc(Cl)cc3F)CC2)nc2ccc(C(=O)O)cc21 [Compound 24]
> 100 | CCn1cncc1Cn1c(CN2CCC(c3ccccc3OCc3ccc(Cl)cc3F)CC2)nc2ccc(C(=O)O)cc21 [Compound 25]
1.8 | [2H]C([2H])(Oc1ccccc1C1CCN(Cc2nc3ccc(C(=O)O)cc3n2C[C@@H]2CCO2)CC1)c1ccc(Cl)cc1F [Compound 26]
2.3 | [2H]C([2H])(c1nc2ccc(C(=O)O)cc2n1C[C@@H]1CCO1)N1CCC(c2ccccc2OCc2ccc(Cl)cc2F)CC1 [Compound 27]
> 100 | CC1(c2ccccc2OCc2ccc(Cl)cc2F)CCN(Cc2nc3ccc(C(=O)O)cc3n2C[C@@H]2CCO2)CC1 [Compound 28]
> 100 | CC1CN(Cc2nc3ccc(C(=O)O)cc3n2C[C@@H]2CCO2)CCC1c1ccccc1OCc1ccc(Cl)cc1F (stereo partly drawn) [Compound 29]
> 100 | CC1CN(Cc2nc3ccc(C(=O)O)cc3n2C[C@@H]2CCO2)CC(C)C1c1ccccc1OCc1ccc(Cl)cc1F (stereo partly drawn) [Compound 30]
